Reference: PMC9437101, “Curcumin-based-fluorescent probes targeting ALDH1A3 as a promising tool for glioblastoma precision surgery and early diagnosis” (Communications Biology, 2022)

How the values were obtained:
Type in all cases: biochemical
ALDH1A1 = target: T1, ALDH1A1 (Homo sapiens, UniProt P00352); assay: Enzymatic inhibition assay with acetaldehyde; settings: up to highest probe concentration
T1 construct: E. coli BL21 (DE3) were transformed with the full-length expression vector of each isoform; His-tag; made in house; host or cells: E. coli BL21 (DE3)
T1 sequence (P00352 1-501): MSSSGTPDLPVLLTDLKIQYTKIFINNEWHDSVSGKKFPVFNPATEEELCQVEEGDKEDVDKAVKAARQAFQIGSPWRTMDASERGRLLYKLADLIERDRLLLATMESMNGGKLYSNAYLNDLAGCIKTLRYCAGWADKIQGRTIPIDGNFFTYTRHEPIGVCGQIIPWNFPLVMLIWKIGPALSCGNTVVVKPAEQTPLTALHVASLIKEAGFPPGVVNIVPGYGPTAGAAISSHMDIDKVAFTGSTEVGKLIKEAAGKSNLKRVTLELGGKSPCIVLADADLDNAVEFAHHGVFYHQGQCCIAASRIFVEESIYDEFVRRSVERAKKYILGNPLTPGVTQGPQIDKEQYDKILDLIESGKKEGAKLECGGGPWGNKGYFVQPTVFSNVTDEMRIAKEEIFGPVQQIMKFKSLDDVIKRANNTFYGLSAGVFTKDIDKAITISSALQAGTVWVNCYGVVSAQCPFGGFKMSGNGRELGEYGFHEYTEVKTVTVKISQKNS
Description: (§1) Initially, the inhibitory activities of our fluorescent probes were screened at a fixed concentration of 50 μM using a Tecan Sunrise 96 Multiplate Reader with Greiner Bio-One 96-UV-Transparent Microplates. The analysis was performed in triplicate in a total volume of 100 μl per well containing 20 mM Tris HCl pH 8.0, 1 mM β-mercaptoethanol, 150 mM KCl, 500 μM NAD^+, […], 2.8 μM hALDH1A and 20 mM acetaldehyde. Afterwards, the inhibitory potency of the fluorescent probes was further investigated, evaluating the IC50 parameter. The enzymatic inhibition assays were performed in triplicate in a total volume of 100 μl per well containing 20 mM Tris HCl pH 8.0, 1 mM β-mercaptoethanol, 150 mM KCl, 500 μM NAD^+, 2.8 μM hALDH1A and 20 mM acetaldehyde in the presence of different probe concentrations, from 200 μM to 1.5625 μM. The DMSO final concentration allowed was up to 15%. Only for ALDH1A3 in complex with Probe 10, the Ki affinity parameter was calculated by performing the analysis in triplicate in a total volume of 100 μl per well containing 20 mM Tris HCl pH 8.0, 1 mM β-mercaptoethanol, 150 mM KCl, 500 μM NAD^+ and 2.8 μM ALDH1As. Due to chemical nature of Probe 10 and Probe 11, we set up the enzymatic assay assuming a competitive inhibition using different compounds concentration, from 200 μM to 1 μM, and different acetaldehyde concentrations, from 20 mM to 2.5 mM. Each reaction mix was preincubated for 10 min at 25 °C before the analysis. The catalytic activity was measured by monitoring the absorbance at 340 nm (εNADH = 6220 M^−^1 cm^−1) for 30 min at 25 °C and the inhibitory parameters were calculated by processing the raw data on SigmaPlot[53].

ALDH1A2 [1] = target: T2, ALDH1A2 (Homo sapiens, UniProt O94788); assay: Enzymatic inhibition assay with acetaldehyde; settings: up to highest probe concentration
T2 construct: E. coli BL21 (DE3) were transformed with the full-length expression vector of each isoform; His-tag; made in house; host or cells: E. coli BL21 (DE3)
T2 sequence (O94788 1-518): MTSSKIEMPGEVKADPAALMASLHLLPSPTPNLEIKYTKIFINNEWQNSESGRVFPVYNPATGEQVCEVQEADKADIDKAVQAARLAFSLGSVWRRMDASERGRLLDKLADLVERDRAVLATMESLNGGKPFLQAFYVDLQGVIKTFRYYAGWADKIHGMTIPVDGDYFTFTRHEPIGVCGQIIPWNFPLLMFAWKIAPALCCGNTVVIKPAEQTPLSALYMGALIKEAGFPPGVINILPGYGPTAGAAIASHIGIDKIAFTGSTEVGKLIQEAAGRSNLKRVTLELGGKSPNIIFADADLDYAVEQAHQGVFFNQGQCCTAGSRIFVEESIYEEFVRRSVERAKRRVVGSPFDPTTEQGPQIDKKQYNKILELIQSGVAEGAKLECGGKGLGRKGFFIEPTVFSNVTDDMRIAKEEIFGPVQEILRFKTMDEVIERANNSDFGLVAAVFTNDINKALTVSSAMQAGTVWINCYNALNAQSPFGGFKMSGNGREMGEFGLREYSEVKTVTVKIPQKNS
Description: as §1

ALDH1A2 [2] = target: T2, ALDH1A2; assay: LC-HRMS analysis of isoenzyme activity in presence of probe; settings: 1 h incubation, LC-HRMS
Description: These analyses were carried out by using UPLC-HRMS procedure with Vanquish UPLC system coupled to a Thermo Scientific Q-Exactive Plus, operating in negative electrospray ionization mode. The chromatographic separation was carried out using a Phenomenex Synergi 4 µ Polar-RP 80 A (150 × 2 mm) equipped with a Phenomenex Polar-RP (4 mm × 2 mm) security guard column. The mobile phase consisted of A: acetonitrile 0.1% formic acid and B: 0.1% formic acid. We used a linear elution gradient, starting from 80% of A to 5% A in 3 min, 3 min at 5% A, an equilibration of 4 min for a total run time of 10.00 min, at 300 µl/min flow rate. The autosampler temperature was set at 15 °C, the injection volume was 5 µl and column was maintained at 40 °C. The heated electrospray ionization source was used, with a spray voltage of […], with a capillary temperature of 300 °C, a heater temperature of 350 °C, a sheat gas flow of 45 arbitrary units (AU), an auxiliary gas flow of 10 AU and a sweep gas flow of 0 AU. During the Parallel Reaction Monitoring acquisition in negative ion mode, the instrument operated at 17,500 resolution in presence of the inclusion list (m/z = 596.20384 and m/z = 612.19875 for Probe 10 and Probe 10-COOH respectively; m/z = 534.18819 and m/z = 506.156888 for Probe 11 and Probe 11-COOH respectively) with an automatic gain control target of 2 × 10^5 charges and a maximum injection time of 100 ms. Before injecting the samples, the blanks in the list were analyzed and every biological sample was analyzed in duplicate. The biological samples analyzed were as follow: (1) Enzymatic assay Buffer; (2) Enzymatic assay Buffer + NAD^+; (3) Enzymatic assay Buffer + Probe 10 or Probe 11; (4) Enzymatic assay Buffer + ALDH1A1; (5) Enzymatic assay Buffer + ALDH1A2; (6) Enzymatic assay Buffer + ALDH1A3; (7) Enzymatic assay Buffer + ALDH1A1 + Probe 10 or Probe 11; (8) Enzymatic assay Buffer + ALDH1A2 + Probe 10 or Probe 11; (9) Enzymatic assay Buffer + ALDH1A3 + Probe 10 or Probe 11. All samples were diluted 1:1 with ACN, then 1:100 in ACN-Water 1:1 prior the LC-HRMS analysis.

Row | SMILES | inhibition of ALDH1A1 (ALDH1A1) | inhibition of ALDH1A2 (ALDH1A2 [1]) | oxidation of probe to carboxylic derivative / substrate behaviour (ALDH1A2 [2])
1 | COc1cc(/C=C/C(O)=C/C(=O)/C=C/c2ccc(OCc3cn(CCOc4ccc(C=O)cc4)nn3)c(OC)c2)ccc1O [Probe 10] | Neither of the two other isozymes were inhibited | Neither of the two other isozymes were inhibited | in part
2 | CCOC(=O)Cn1cc(COc2ccc(/C=C/C(=O)/C=C(O)/C=C/c3ccc(O)c(OC)c3)cc2OC)nn1 [Probe 11] | no inhibitory effect | no inhibitory effect | has not been shown to be a substrate
